Measured values from the NIST ThermoML archive (doi:10.1021/je050013y).
± gives the expanded uncertainty stated by the source.

Assays:
[1] = 293.15 K; 101.33 kPa; Liquid
[2] = refractive index (Na D-line) (dimensionless); settings: 293.15 K; 101.33 kPa; Liquid; Standard Abbe refractometry

Compound	mass density [1] [kg/m3]	refractive index [2]
COC(C)(C)OC [3,3-dimethyl-2,4-dioxapentane]	840.2 ± 4.5	1.378 ± 0.0007
CC(C)=O [acetone]	784.6 ± 3	1.3589 ± 0.0007
CO [methanol]	786.5 ± 0.3	1.3289 ± 0.0007
